Target: T1, Human Recombinant (E. coli) PPARgamma (Homo sapiens, UniProt P37231)
T1 construct: host or cells: E. coli
T1 sequence (P37231 1-505): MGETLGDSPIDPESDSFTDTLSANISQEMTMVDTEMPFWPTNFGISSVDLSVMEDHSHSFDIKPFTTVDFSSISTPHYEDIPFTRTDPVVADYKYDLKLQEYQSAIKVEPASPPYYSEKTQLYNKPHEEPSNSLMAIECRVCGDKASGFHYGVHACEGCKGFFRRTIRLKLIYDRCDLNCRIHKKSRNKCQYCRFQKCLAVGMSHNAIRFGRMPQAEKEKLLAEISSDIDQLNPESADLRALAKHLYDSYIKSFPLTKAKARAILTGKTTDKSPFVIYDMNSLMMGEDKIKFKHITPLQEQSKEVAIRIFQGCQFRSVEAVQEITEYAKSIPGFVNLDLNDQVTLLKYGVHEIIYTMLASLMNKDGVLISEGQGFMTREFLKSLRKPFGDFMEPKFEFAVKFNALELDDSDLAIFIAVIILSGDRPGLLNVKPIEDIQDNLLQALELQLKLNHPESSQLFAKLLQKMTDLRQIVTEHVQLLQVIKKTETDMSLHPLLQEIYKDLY
Test: PPAR gamma binding assay
Conditions: at 30 μM
Method: Incubation: 120 min. at 4° C.
The results are expressed as a percent of control specific binding ((measured specific binding/control specific binding)×100) obtained in the presence of the test compounds. The IC50 values (concentration causing a half-maximal inhibition of control specific binding) and Hill coefficients (nil) were determined by non-linear regression analysis of the competition curves generated with mean replicate values using Hill equation curve fitting (Y=D+[(A−D)/(1+(C/C50)nH)], where Y=specific binding, D=minimum specific binding, A=maximum specific binding, C=compound concentration, C50=IC50, and nH=slope factor). This analysis was performed using a software developed at Cerep (Hill software) and validated by comparison with data generated by the commercial software SigmaPlot 4.0 for Windows® (© 1997 by SPSS Inc.). The inhibition constants (Ki) were calculated using the Cheng Prusoff equation (Ki=IC50/(1+(L/KD)), where L=concentration of radioligand in the assay, and KD=affinity of the radioligand for the receptor).

PPARγ binding: no binding
Structure (SMILES): O=C(O)CC/C=C\C[C@H]1CO[C@@H](c2ccccc2Cl)O[C@H]1c1ccccc1O [Compound B, (Z)-6-((2R,4R,5S)-2-(2-chlorophenyl)-4-(2-hydroxyphenyl)-1,3-dioxan-5-yl)hex-4-enoic acid, reference compound]

Source: patent US20130197030A1, “Substituted 1,3-Dioxanes and There Uses” (Evolva Sa, priority 2007, published 2013)
